Species: Rattus norvegicus
Test: Open TG-GATES - Regimen: Single
Assay type: toxicity, organism-based, Sprague-Dawley
Design: regimen Single, gender Male, age 6 weeks
Conditions: in vivo, po, route gavage; for APTT / Bas / Eos / Fbg / Hb / Ht / Lym / MCH / MCHC / MCV / Mono / Neu / PT / Plat / RBC / Ret / WBC: tissue Blood; for KIDNEY_L / KIDNEY_R / KIDNEY_TOTAL: tissue Kidney; for LIVER: tissue Liver
[1] = 300 mg/kg, 3 h, dose level Middle
[2] = 300 mg/kg, 3 h, tissue Plasma, dose level Middle
[3] = 300 mg/kg, 6 h, dose level Middle
[4] = 300 mg/kg, 6 h, tissue Plasma, dose level Middle
[5] = 300 mg/kg, 9 h, dose level Middle
[6] = 300 mg/kg, 9 h, tissue Plasma, dose level Middle
[7] = 300 mg/kg, 24 h, dose level Middle
[8] = 300 mg/kg, 24 h, tissue Plasma, dose level Middle

C[C@H](CS)C(=O)N1CCC[C@H]1C(=O)O [CAPTOPRIL]
gamma-GTP (100 mg/kg, 24 h, tissue Plasma, dose level Low): 1 IU/L
TERMINAL_BW [1]: 224.2 g
APTT [1]: 16.3 s
Bas [1]: 0%
Eos [1]: 0.8%
Fbg [1]: 204.8 mg/dL
Hb [1]: 13.2 g/dL
Ht [1]: 39.8%
Lym [1]: 83.6%
MCH [1]: 21.3 pg
MCHC [1]: 33.2%
MCV [1]: 64.1 fL
Mono [1]: 5%
Neu [1]: 10%
PT [1]: 11.6 s
Plat [1]: 117.4 x10_4/uL
RBC [1]: 620.8 x10_4/ul
Ret [1]: 6.6%
WBC [1]: 125.4 x10_2/uL
KIDNEY_L [1]: 1 g
KIDNEY_R [1]: 1 g
KIDNEY_TOTAL [1]: 2 g
LIVER [1]: 11.2 g
ALP [2]: 845.8 IU/L
ALT [2]: 33.4 IU/L
AST [2]: 61.8 IU/L
BUN [2]: 17 mg/dL
CRE [2]: 0.4 mg/dL
DBIL [2]: 0.006 mg/dL
GLC [2]: 209.4 mg/dL
IP [2]: 9.3 mg/dL
K [2]: 5 meq/L
Na [2]: 138 meq/L
PL [2]: 130 mg/dL
RALB [2]: 3.7 g/dL
TBIL [2]: 0.4 mg/dL
TC [2]: 70.8 mg/dL
TG [2]: 68.6 mg/dL
TP [2]: 5.4 g/dL
gamma-GTP [2]: 1.4 IU/L
TERMINAL_BW [3]: 221.9 g
APTT [3]: 16.4 s
Bas [3]: 0%
Eos [3]: 1.2%
Hb [3]: 12.9 g/dL
Ht [3]: 39%
Lym [3]: 80%
MCH [3]: 21 pg
MCHC [3]: 33%
MCV [3]: 63.5 fL
Mono [3]: 6.6%
Neu [3]: 12.2%
PT [3]: 12.1 s
Plat [3]: 116.7 x10_4/uL
RBC [3]: 615 x10_4/ul
Ret [3]: 8.2%
WBC [3]: 113.8 x10_2/uL
KIDNEY_L [3]: 1 g
KIDNEY_R [3]: 1 g
KIDNEY_TOTAL [3]: 2 g
ALP [4]: 734.8 IU/L
ALT [4]: 32 IU/L
AST [4]: 55 IU/L
BUN [4]: 21.8 mg/dL
CRE [4]: 0.6 mg/dL
DBIL [4]: 0.026 mg/dL
GLC [4]: 197.4 mg/dL
K [4]: 4.8 meq/L
LDH [4]: 92.4 IU/L
Na [4]: 139 meq/L
PL [4]: 133.6 mg/dL
RALB [4]: 3.5 g/dL
TBIL [4]: 0.5 mg/dL
TC [4]: 73.6 mg/dL
TG [4]: 50.4 mg/dL
TP [4]: 5.1 g/dL
gamma-GTP [4]: 2 IU/L
TERMINAL_BW [5]: 222.6 g
APTT [5]: 15.9 s
Bas [5]: 0%
Eos [5]: 0.8%
Fbg [5]: 204 mg/dL
Hb [5]: 13 g/dL
Ht [5]: 39.5%
Lym [5]: 79.2%
MCH [5]: 21.4 pg
MCHC [5]: 32.8%
MCV [5]: 65.4 fL
Mono [5]: 4.8%
Neu [5]: 15.2%
PT [5]: 12.3 s
RBC [5]: 604.2 x10_4/ul
Ret [5]: 8.6%
KIDNEY_L [5]: 1 g
KIDNEY_R [5]: 1 g
KIDNEY_TOTAL [5]: 2 g
LIVER [5]: 9.4 g
ALP [6]: 667 IU/L
ALT [6]: 35.4 IU/L
AST [6]: 55.8 IU/L
BUN [6]: 16.8 mg/dL
CRE [6]: 0.4 mg/dL
DBIL [6]: 0.078 mg/dL
GLC [6]: 208.6 mg/dL
K [6]: 5 meq/L
LDH [6]: 72.6 IU/L
Na [6]: 139.6 meq/L
PL [6]: 139.6 mg/dL
RALB [6]: 3.7 g/dL
TBIL [6]: 0.3 mg/dL
TC [6]: 78.8 mg/dL
TG [6]: 49 mg/dL
TP [6]: 5.3 g/dL
gamma-GTP [6]: 2 IU/L
TERMINAL_BW [7]: 235.1 g
APTT [7]: 16.5 s
Bas [7]: 0%
Eos [7]: 0.8%
Hb [7]: 13.2 g/dL
Ht [7]: 39.8%
Lym [7]: 83.4%
MCH [7]: 21.5 pg
MCHC [7]: 33.2%
MCV [7]: 64.8 fL
Mono [7]: 5.2%
Neu [7]: 10%
PT [7]: 11.4 s
Plat [7]: 118.6 x10_4/uL
RBC [7]: 613.8 x10_4/ul
Ret [7]: 8.6%
KIDNEY_L [7]: 1 g
KIDNEY_R [7]: 1 g
KIDNEY_TOTAL [7]: 2.1 g
LIVER [7]: 11.6 g
ALT [8]: 37.6 IU/L
AST [8]: 64.8 IU/L
BUN [8]: 17.4 mg/dL
CRE [8]: 0.6 mg/dL
Ca [8]: 11.3 mg/dL
DBIL [8]: 0.02 mg/dL
GLC [8]: 189.6 mg/dL
IP [8]: 8.5 mg/dL
K [8]: 4.9 meq/L
LDH [8]: 115.6 IU/L
Na [8]: 138.8 meq/L
PL [8]: 150.6 mg/dL
RALB [8]: 4.1 g/dL
TBIL [8]: 0.3 mg/dL
TC [8]: 79.2 mg/dL
TG [8]: 86 mg/dL
TP [8]: 5.9 g/dL
gamma-GTP [8]: 0.6 IU/L
TERMINAL_BW (1000 mg/kg, 3 h, dose level High): 222.3 g
